The results in this text go back to US10023615B2, “Efficient transport into white blood cells” (priority 2008, dated 2018).

Square brackets hold non-standard residues; d marks the D form. Ends that are not written are not given here.

The test system of one data set is liver and lymph nodes. Kind of data set: FITC-XG-102 and FITC-D-TAT localization in liver and lymph nodes. Type of data set: in vivo, Sprague Dawley rat. The note with it: 1 mg/kg i.v., 6 h post-injection.
Excerpt: FIG. 22A and FIG. 22B: 22A: FITC-XG-102 (SEQ ID NO: 233) localization in the liver. Three cellular fields of FITC-XG-102-labelled cells isolated from liver. From left to right, FITC-labelled XG-102, corresponding DAPI nuclear stain and merge of both images. […] Typicall Kupfer cell shape and nucleus can be differentiated from hepatocytes by their shape. Small and triangle in Kupfer cells in contrast to big exagonal, well organized hepatocytes. Obj 63; bar, 20 μm. 22B: FITC-D-TAT (SEQ ID NO: 4) localization in the liver. Two cellular fields of FITC-D-TAT-labelled cells isolated from liver. From left to right, FITC-labelled XG-102, corresponding DAPI nuclear stain and merge of both images. […] Typicall Kupfer cell shape and nucleus can be differentiated from hepatocytes by their shape. Small and triangle in Kupfer cells in contrast to big exagonal, well organized hepatocytes. Obj 63; bar, 20 μm.
(§1) FIG. 23A and FIG. 23B: 23A: FITC-XG-102 (SEQ ID NO: 233) localization in lymph nodes. Cellular field of FITC-XG-102-labelled cells isolated from lymph nodes. Upper panels from left to right: the composite image is organized with one cellular field stained with FITC-XG-102 (left), Dapi for nuclear stain (middle) and the corresponding merged image (right). In the lower panels, a zoomed cell cluster of each image is illustrated. […] The absence of FITC staining in the lymphoid follicles allows distinguishing from the medullary corde and cortex area. Medullary zone seems to have incorporated the FITC-XG-102, composed in majority by macrophages. Obj 10; bar, 50 μm.
as §1, with “23B:” for “FIG. 23A and FIG. 23B:”, “FITC-D-TAT” for “23A: FITC-XG-102”, “4)” for “233)”, “FITC-D-TAT-labelled” for “FITC-XG-102-labelled”, “FITC-D-TAT” for “FITC-XG-102”, “FITC-D-TAT,” for “FITC-XG-102,”
Female Sprague Dawley rat was injected i.v. in the tail with either 1 mg/kg of FITC-XG102 (SEQ ID NO:233) or 1 mg/kg FITC-D-TAT (SEQ ID NO:4). Rats were sacrified 6 h post-injection using a lethal dose of sodium pentobarbital (150 mg/kg i.p.). For histological analysis and during narcosis, rats were perfused through the heart with 4% paraformaldehyde (PFA) in PBS. Organs (liver and lymph nodes) were cryoprotected in sucrose (30% in PBS), frozen using liquid isopentane and kept for further cryostat sectioning. Sections of 14 μm were incubated for 5 min in PBS before Hoechst staining for 2 min at RT (1 μg/ml). […]

The test system of the next data set is Monocytes (CD14). The data set is described as follows: Flow cytometry of FITC-transporter content in primary human white blood cells: monocytes. It counts as cell-based. The settings on record: 1 uM, 30 min, 37° C. The source says:
(§2) Primary human white blood cells (WBC) were obtained from whole blood after red blood cell lysis. […] Cells containing D-TAT-FITC and r3-L-TAT-FITC were finally analysed by flow cytometry to measure their respective transporter content.

The test system of the next data set is Neutrophils (CD15). The data set is described as follows: Flow cytometry of FITC-transporter content in primary human white blood cells: neutrophils. Type of data set: cell-based. The note with it: 1 uM, 30 min, 37° C.
Excerpt: as §2

The test system of a further data set is Lymphocytes T (CD3). Kind of data set: Flow cytometry of FITC-transporter content in primary human white blood cells: lymphocytes T. Type of data set: cell-based. The note with it: 1 uM, 30 min, 37° C.
Excerpt: as §2

A further data set has as its system Lymphocytes B (CD19). Kind of data set: Flow cytometry of FITC-transporter content in primary human white blood cells: lymphocytes B. Type of data set: cell-based. The note with it: 1 uM, 30 min, 37° C.
Excerpt: as §2

Another data set has as its system TNBS induced colitis. The data set is described as follows: TNBS induced colitis (IBD study). Type of data set: in vivo. The method, then:
b) Constitution of Test Groups and Dose Levels • The table below lists the experimental groups comprising the study.
c) Test Procedures • Colitis was induced by administration of TNBS dissolved in 50% Ethanol • All animals were then treated with doses of XG-102 in the range of 0.1 to 1000 μg/kg, […], as a single or repeated daily doses (see above).
d) Observations and Examinations • i) Clinical Signs • Throughout the duration of the above experiment, careful clinical examinations were carried out and recorded. Observations included changes external appearance, e.g. of the skin, fur, eyes, mucous membranes, occurrence of secretions and excretions (e.g. diarrhea), and autonomic activity. Changes in gait, posture and response to handling, as well as the presence of bizarre behavior, tremors, convulsions, sleep and coma were also noted. • ii) Body Weights • Determination of individual body weight of animals was made on a daily basis. • iii) Clinical Assessment of Colitis • Body weight, stool consistency and bleeding per rectum were all recorded daily and served as the parameters of disease severity score:
• iv) Gross Pathology of the Colon • On the last day of the experiment, animals were euthanized and the colon was removed for gross pathology evaluation according to the following score: […]

The next data set deals with U937 lymphoma cells. Kind of data set: Uptake (internalization) of FITC-labeled TAT derived transporter constructs in U937 cells, fluorescence plate reader. Type of data set: cell-based. The settings on record: 10 μM, U937, Lymphoma, 24 h.
The subject of another data set is U937 cells. Kind of data set: Intracellular concentration of transporter constructs subsequent to uptake into U937 cells. It counts as cell-based. The settings on record: U937 cells, 10 μM construct. As to the method:
9. Determination of Intracellular Concentration of Specific Transporter Constructs Subsequent to Uptake (Internalization) of these Peptides into U937 Cells • According to a further experiment, the concentration of specific transporter constructs subsequent to uptake (internalization) of these peptides into U937 cells were determined.

Data set [1] has as its system HL-60 cell line (Leukemia). The data set is described as follows: Time dependant internalization of FITC-labeled TAT derived transporter constructs into HL-60 cells. It counts as cell-based. The note with it: 10 μM; 30 min, 1, 6 or 24 hours. As to the method: FIG. 3: depicts the results of the time dependant internalization (uptake) of FITC-labeled TAT derived transporter constructs into cells of the HL-60 cell line. […] HL-60 cells were incubated 30 min, 1, 6 or 24 hours with […] of the TAT-derivative transporters. The cells were then washed twice with an acidic buffer (0.2 M Glycin, 0.15 M NaCl, pH 3.0) and twice with PBS. Cells were broken by the addition of RIPA lysis buffer. The relative amount of internalized peptide was then determined by reading the fluorescence intensity (Fusion Alpha plate reader; PerkinElmer) of each extract followed by background substraction and protein content normalization. […]

Protocol for U937 lymphoma cells: Cells were plated into poly-DL-lysine coated dishes at a concentration of 1×10^6 cells/ml. Plates were then incubated for 24 h at 37° C., 5% CO2, and 100% relative humidity prior to the addition of a known concentration of peptide. After peptide addition, the cells were incubated 30 min, 1, 6 or 24 h at 37° C., 5% CO2, and 100% relative humidity. Cells were then washed twice with an acidic buffer (Glycin 0.2 M, NaCl 0.15 M, pH 3.0) in order to remove the cell-surface adsorbed peptide (see Kameyama et al., (2007), Biopolymers, 88, 98-107). […] The cell wash using an acidic buffer was thus employed to remove the cell-surface adsorbed peptides. […] Cells were broken by the addition of the RIPA lysis buffer. The relative amount of internalized peptide was then determined by fluorescence after background substraction and protein content normalization. • The steps are thus: 1. […] Analysis of peptide internalization with a fluorescence plate reader • f) Cell Culture and Peptide Treatment • (1) The 6 well culture plates are coated with 3 ml of Poly-D-Lys (Sigma P9011; 25 μg/ml in PBS), the 24 well plates with 600 μl and the 96 well plates with 125 μl and incubated for 4 h at 37° C., CO2 5% and 100% relative humidity. • (2) After 4 hours the dishes were washed twice with 3.5 ml PBS, 700 μl or 150 μl PBS for the 6, 24 or 96 well plates, respectively. • (3) The cells were plated into the dishes in 2.4 ml medium (RPMI) at plating densities of 1′000′000 cells/ml for suspension cells. After inoculation, the plates were incubated at 37° C., 5% CO2 and 100% relative humidity for 24 hours prior to the addition of the peptide. Adherent cells should be at a density of 90-95% the day of treatment and were plated in DMEM :
• (4) The cells were treated with the desired concentration of FITC labeled peptide (stock solution at a concentration of 10 mM in H2O). • (5) Following peptide addition, the cells were incubated 0 to 24 hours (e.g. 30 min, 1, 6 or 24 hours) at 37° C., CO2 5% and 100% relative humidity. • Acidic Wash and Cellular Extracts: • (6) The extracts were cooled on ice. • Suspension cells (or cells, which don attach well to the dish): • Transfer the cells in ? […] To recover the maximum of cells, wash the dish with 1 ml of PBS. • Harvest the cells 2 min at 2400 rpm max. • Suspend the cells in 1 ml cold PBS. • Transfer the cells into a coated “Eppendorf tube” (coated with 1 ml of poly D-Lys for 4 hours and washed twice with 1 ml PBS). • Wash three times with 1 ml of cold acidic wash buffer and centrifuge 2 min at 2400 rpm max. Beware of the spreading of the cells in the “eppendorf”. • Wash twice with 1 ml cold PBS to neutralize. • Add 50 μl of lysis RIPA Buffer. • Incubate 30 min-1 h on ice with agitation. • Adherent Cells: • Wash three times with 3 ml, 1 ml or 200 μl (for 6, 24 or 96 well plates, respectively) of cold acidic wash buffer. Beware of the cells who detach from the dish. • Wash twice with 1 ml cold PBS (for 6, 24 or 96 well plates, respectively) to neutralize. • Add 50 μl of lysis RIPA buffer. • Incubate 30 min-1 h on ice with agitation. • Scrap the cells with a cold scrapper. The 24 and 96 well plates were directly centrifuged at 4000 rpm at 4° for 15 min to remove the cellular debris. Then the supernatants (100 or 50 ml respectively for the 24 or 96 well plates) were directly transferred in a dark 96 well plated.

In the case of “FITC-XG-102: FITC-labelled XG-102 (SEQ ID NO: 233) ([dD][dQ][dS][dR][dP][dV][dQ][dP][dF][dL][dN][dL][dT][dT][dP][dR][dK][dP][dR][dP][dP][dR][dR][dR][dQ][dR][dR][dK][dK][dR]G; not fully specified (N-terminus, C-terminus); also: FITC label, site not given here)”, in the data set with liver and lymph nodes, the “localization in lymph nodes” value is “decorates subcapsular sinus macrophages and constitutive migrating alveolar macrophages”; the “localization in the liver” value was “efficiently decorates Kupfer cells in contrast to hepatocytes which only show a background staining level”.

On to FITC-βA-rKKRrQRRr [r3-L-TAT-FITC], for which, in the data set with Monocytes (CD14), the “percentage of cells gated, lower left quadrant” value (“percentage … lower left quadrant” below) is 40.77%; the “percentage of cells gated, lower right quadrant” value came out at 36.24%; the “percentage of cells gated, upper left quadrant” value (“percentage … upper left quadrant” for short) came out at 6.34%; the “percentage of cells gated, upper right quadrant” value is recorded as 16.65%. In the data set with Neutrophils (CD15), the “percentage … lower left quadrant” value was determined as 49.75%; the “percentage of cells gated, lower right quadrant” value was found to be 24.76%; the “percentage … upper left quadrant” value was found to be 11.74%; the “percentage of cells gated, upper right quadrant” value was 13.75%. In the data set on Lymphocytes T (CD3), the “percentage … lower left quadrant” value is recorded as 50.36%; the “percentage of cells gated, lower right quadrant” value came to 20.04%; the “percentage … upper left quadrant” value was 20.64%; the “percentage of cells gated, upper right quadrant” value was found to be 8.96%. Also, in the data set with Lymphocytes B (CD19), the “percentage … lower left quadrant” value was found to be 61.92%; the “percentage of cells gated, lower right quadrant” value came out at 8.48%; the “percentage … upper left quadrant” value was 27.83%; the “percentage of cells gated, upper right quadrant” value amounted to 1.76%.

Turning to `O=C(O)c1cc(/N=N/c2ccc(S(=O)(=O)Nc3ccccn3)cc2)ccc1O` [Sulfasalazine, reference compound], in the data set on TNBS induced colitis (any dose, route or time schedule (single dose or daily dose)), the clinical score entry is “reduction in the clinical score”. For the same molecule, in the data set with TNBS induced colitis (end of the study), the gross pathology score result was “effective in reducing the gross pathology completely”.

For the molecule “RKKRRQRRR (Description of sequence trafficking sequence L-TAT (s1a) (see Table 1)) [reference compound]”, the “uptake (internalization)” value with U937 lymphoma cells is on record as “significantly lower uptake”. The “intracellular concentration of transporter construct subsequent to uptake” value was 1.20 in the data set on U937 cells (2 h), 1.38 with U937 cells (4 h), 1.07 in the data set on U937 cells (6 h) and 0.5 in the data set on U937 cells (24 h). Moreover, the “time dependant internalization (uptake)” value in data set [1] is “doesn't accumulate over a period of 24 hours”.
